Patent US6916825B2, “Alkylated imidazopyridine derivatives” (Altana Pharma AG, priority 2000, dated 2005)

Assays:
[1] = tested on: acid secretion of the perfused rat stomach stimulated by pentagastrin; test: Secretion-inhibiting action on perfused rat stomach (pentagastrin-stimulated acid secretion); format: in vivo; conditions: anesthetized CD rats, dose 1 μmol/kg i.v.
Description: Testing of the Secretion-inhibiting Action on Perfused Rat Stomach
In table A below, the influence of the compounds according to the invention after intravenous administration is shown on the acid secretion of the perfused rat stomach stimulated by pentagastrin.
The abdomen of anesthetized rats (CD rats, female, 200-250 g; 1.5 g/kg of i.m. urethane) was opened after tracheotomy by a median upper abdominal incision and a PVC catheter was fixed transorally in the esophagus and a further one via the pylorus such that the ends of the tubing just still projected into the gastric lumen. The catheter leading from the pylorus led outwards via a side opening in the right abdominal wall.
After thorough rinsing (about 50-100 ml), a continuous flow of warm physiological NaCl solution (0.5 ml/min, pH 6.8-6.9; Braun-Unita I) was continuously passed through the stomach at 37° C. The pH in the effluent, in each case collected at an interval of 15 minutes, was determined (pH meter 632, glass electrode EA 147; φ=5 mm, Metrohm) and the secreted HCl was determined by titration with a freshly prepared 0.01 N NaOH solution to pH 7 (Dosimat 665 Metrohm).
Gastric secretion was stimulated by continuous infusion of 1 μg/kg (=1.65 ml/h) of i.v. pentagastrin (left femoral vein) about 30 min after the end of the operation (i.e. after determination of 2 preliminary fractions). The substances to be tested were administered intravenously in 1 ml/kg of fluid volume 60 min after the start of the pentagastrin continuous infusion.
The body temperature of the animals was kept at a constant 37.8-38° C. by means of infrared irradiation and heating pads (automatic, step-free control via a rectal temperature sensor).

Row | melting point [°C] | SMILES | Inhibition of acid secretion [1] [%]
1 | 248 to 251 | Cc1nc2c3c(ccn2c1C)C(=O)[C@](O)(Cc1ccccc1)[C@@H](c1ccccc1)N3 [Example 3, (8S,9R)-2,3-Dimethyl-8-benzyl-8-hydroxy-9-phenyl-7,8,9,10-tetrahydroimidazo[1,2-h][1,7]naphthyridin-7-one] | –
2 | – | Cc1nc2c3c(ccn2c1C)[C@@](C)(O)[C@H](O)[C@@H](c1ccccc1)O3 [Example 12, (7R,8R,9R)-2,3,7-Trimethyl-7,8-dihydroxy-9-phenyl-7H-8,9-dihydropyrano[2,3-c]imidazo[1,2-a]-pyridine] | 100
3 | 137 to 138 | Cc1nc2c3c(ccn2c1C)[C@@](C)(O)[C@H](O)[C@@H](c1ccccc1)N3 [Example 8, (7R,8R,9R)-2,3,7-Trimethyl-7,8-dihydroxy-9-phenyl-7,8,9,10-tetrahydroimidazo[1,2-h][1,7]-naphthyridine] | 100
4 | 180 | Cc1nc2c3c(ccn2c1C)[C@@H](O)[C@@](C)(O)[C@@H](c1ccccc1)N3 [Example 2, (7R,8S,9R)-2,3,8-Trimethyl-7,8-dihydroxy-9-phenyl-7,8,9,10-tetrahydroimidazo[1,2-h][1,7]naphthyridine] | 100
5 | 199 to 202 | C=C1c2ccn3c(C)c(C)nc3c2N[C@H](c2ccccc2)[C@H]1O [Example 10, (8S,9R)-2,3-Dimethyl-8-hydroxy-7-methylidene-9-phenyl-7,8,9,10-tetrahydroimidazo[1,2-h][1,7]-naphthyridine] | 100
6 | 190 | CO[C@H]1c2ccn3c(C)c(C)nc3c2N[C@H](c2ccccc2)[C@]1(C)O [Example 7, (7S,8S,9R)-2,3,8-Trimethyl-7-methoxy-8-hydroxy-9-phenyl-7,8,9,10-tetrahydroimidazo[1,2-h]-[1,7]naphthyridine] | –
7 | 115 to 122 | Cc1nc2c3c(ccn2c1C)[C@H](O)[C@](O)(Cc1ccccc1)[C@@H](c1ccccc1)N3 [Example 4, (7S,8S,9R)-2,3-Dimethyl-8-benzyl-7,8-dihydroxy-9-phenyl-7,8,9,10-tetrahydroimidazo[1,2-h][1,7]-naphthyridine] | –
8 | 240 | Cc1nc2c3c(ccn2c1C)C(=O)[C@@](C)(O)[C@@H](c1ccccc1)N3 [Example 1, (8S,9R)-2,3,8-Trimethyl-8-hydroxy-9-phenyl-7,8,9,10-tetrahydroimidazo[1,2-h][1,7]naphthyridin-7-one] | –
